Publication PMC9782211 (Microorganisms, 2022)

How the values were obtained:
[1] = tested on: human erythrocytes; experiment: Hemolysis assay; format: cell-based; conditions: pH 7.4, 37 °C, 30 min
Protocol: The activity of the peptides to lyse freshly isolated human erythrocytes was determined in PBS, pH 7.4 at 37 °C. Dilutions were prepared in duplicate in a round bottom microtiter plate. For that, 20 µL erythrocytes (5 · 10^8 cells/mL) was incubated with 80 µL of a peptide sample at 37 °C for 30 min in a humidified box. The hemolytic activity after incubation was measured by transferring the supernatants into another empty microtiter plate. This plate was read on a microtiter plate reader at 405 nm. Hemolytic activity was expressed as the percentage of released hemoglobin with respect to water/buffer controls (100% release) or controls processed without peptides (0% release).
Red blood cells (RBCs) were obtained from citrated human blood by centrifugation (1500× g, 10 min), washed three times with isotonic 20 mM phosphate-NaCl buffer (pH 7.4), and suspended in the same buffer at a concentration equivalent to 5% of the normal hematocrit. […] The supernatants were analyzed spectrophotometrically (with absorbance at 543 nm) for hemoglobin, and results were expressed as the percentage released with respect to sonicated controls (100% release) or controls processed without peptides (0% release).

[2] = tested on: LS-174T cells (human colon adenocarcinoma cell line); experiment: Bionas chip-based system, respiration rate; format: cell-based; conditions: 24 h peptide exposure
Protocol: (§1) Cytotoxicity was assayed by using the chip-based Bionas system with four different cell types. These include human hepatoma cells (HepG2), human colon adenocarcinoma cells (LS-174T), human acute lymphocytic leukemic cells (Jurkat), and human peripheral blood mononuclear cells (hPBMC), provided by Cell Line Services (Piscataway, NJ, USA) and ProBioGen (Berlin, Germany). The cells were seeded on chips, with a density of 200,000 cells/chip for HepG2 and LS-174T, 300,000 cells/chip for Jurkat, and 2 million cells/chip for PBMC.
(§2) A metabolic investigation with four cells and cell lines on the effect of Pep19-2.5 on selected cell parameters was performed. In detail, see Table 1.
(§3) The analysis was performed in the Bionas® 2500 analyzing system by seeding the cells on the chips, with cell numbers of 200,000 for HepG2 cells and LS-174T cells, and 300,000 for Jurkat cells. The suspended cells were embedded on the day of the experiment in agarose and immediately put into the Bionas® 2500 analyzing system. The settling phase (‘RM’) was 5 h. The peptides were added after 5 h for 24 h, then a regeneration phase followed for 4 h (‘RM’), and in the last phase the cells were lysed with 0.2% triton in fresh medium (‘TX’). For the parameters acidification, respiration, and adhesion (impedance), the mean values from two experiments were calculated. […]

[3] = tested on: human PBMC cells; experiment: Bionas chip-based system, respiration rate; format: cell-based; conditions: 24 h peptide exposure
Protocol: as §1, §2, §3

[4] = biological target: T1, hERG ion channel (gene ID 3757) (Homo sapiens, UniProt Q12809); experiment: Automated planar patch clamp (QPatch), hERG in CHO cells; format: cell-based; conditions: for relative remaining hERG current: QPatch
T1 construct: expressed in transfected cells
Protocol: For automated patch clamp experiments, QPatch, a planar patch clamp robot, was used. QPatch experiments were performed as previously described. […] Patch clamp experiments were performed in the whole-cell voltage clamp mode on a planar patch clamp chip. Successfully clamped cells were stimulated with the following stimulation protocol: From a holding potential of −80 mV, the cells were partially depolarized to −50 mV to test the leak current at this potential where hERG channels are closed. This was followed by a depolarization to +40 mV. At this depolarized potential, the hERG channels alternate between the open and inactivated states. After partially repolarizing to −50 mV, the inactivated subpopulation of hERG channels rapidly recovers from inactivation and switches into the open state, from where the channels slowly close.
Aspidasept (Pep19-2.5) was applied at nominal concentrations of 1 µg/mL, 10 µg/mL, and 100 µg/mL, and remaining hERG mediated potassium channel currents normalized to initial currents were calculated.

[5] = tested on: local lymph node; experiment: Local lymph node assay (LLNA), skin sensitization; format: in vivo, mouse
Protocol: • Application of substance on external surface of each ear (25 µL/ear) for 3 consecutive days • On day 6, intravenous injection of tritiated methyl thymidine (^3HTdR) in tail vein, and after about 6 h, sacrification and preparation of lymph node cell • Cell proliferation in lymph node measured by incorporation of ^3HTdR

[6] = Maximum attainable test concentration based on solubility; format: physicochemical; conditions: in aqueous 1% Pluronic PE9200
[7] = tested on: male Wistar rats; experiment: Modified Irwin test (neurobehavioral activity)
Protocol: In this test, an examination is done whether or not drugs induce behavioural and physiologically relevant effects. […] The modified Irwin test was performed under GLP conditions and was comprised of a standard observation battery of tests addressing various parameters of the central nervous, autonomic nervous, peripheral motor, and sensory systems.
The study comprised five treatment groups with six male animals each.
The following investigations were made at the following time points: • Mortality: twice daily during the observation period • Clinical observations: on the day of treatment before application • Body weight development: on the day of delivery and on the day of treatment before application • Modified Irwin test: at the time points pre-test (24 h prior to administration), 1 h, 4 h, 7 h, 24 h, 48 h, and 72 h after application.
Statistical analyses of the data were performed for each group separately. Group mean values (means) with standard deviation (SD) were calculated for body weights, each parameter of the Irwin Test, and each investigation time point.
For Irwin Test parameters, statistical differences between the positive control group and the vehicle control group and between the test item groups and the vehicle control group were evaluated by the Mann–Whitney U-test, using an MS Excel® statistics tool developed and validated in-house; p < 0.05 was accepted as the level of significance.

T1 sequence (Q12809 whole entry): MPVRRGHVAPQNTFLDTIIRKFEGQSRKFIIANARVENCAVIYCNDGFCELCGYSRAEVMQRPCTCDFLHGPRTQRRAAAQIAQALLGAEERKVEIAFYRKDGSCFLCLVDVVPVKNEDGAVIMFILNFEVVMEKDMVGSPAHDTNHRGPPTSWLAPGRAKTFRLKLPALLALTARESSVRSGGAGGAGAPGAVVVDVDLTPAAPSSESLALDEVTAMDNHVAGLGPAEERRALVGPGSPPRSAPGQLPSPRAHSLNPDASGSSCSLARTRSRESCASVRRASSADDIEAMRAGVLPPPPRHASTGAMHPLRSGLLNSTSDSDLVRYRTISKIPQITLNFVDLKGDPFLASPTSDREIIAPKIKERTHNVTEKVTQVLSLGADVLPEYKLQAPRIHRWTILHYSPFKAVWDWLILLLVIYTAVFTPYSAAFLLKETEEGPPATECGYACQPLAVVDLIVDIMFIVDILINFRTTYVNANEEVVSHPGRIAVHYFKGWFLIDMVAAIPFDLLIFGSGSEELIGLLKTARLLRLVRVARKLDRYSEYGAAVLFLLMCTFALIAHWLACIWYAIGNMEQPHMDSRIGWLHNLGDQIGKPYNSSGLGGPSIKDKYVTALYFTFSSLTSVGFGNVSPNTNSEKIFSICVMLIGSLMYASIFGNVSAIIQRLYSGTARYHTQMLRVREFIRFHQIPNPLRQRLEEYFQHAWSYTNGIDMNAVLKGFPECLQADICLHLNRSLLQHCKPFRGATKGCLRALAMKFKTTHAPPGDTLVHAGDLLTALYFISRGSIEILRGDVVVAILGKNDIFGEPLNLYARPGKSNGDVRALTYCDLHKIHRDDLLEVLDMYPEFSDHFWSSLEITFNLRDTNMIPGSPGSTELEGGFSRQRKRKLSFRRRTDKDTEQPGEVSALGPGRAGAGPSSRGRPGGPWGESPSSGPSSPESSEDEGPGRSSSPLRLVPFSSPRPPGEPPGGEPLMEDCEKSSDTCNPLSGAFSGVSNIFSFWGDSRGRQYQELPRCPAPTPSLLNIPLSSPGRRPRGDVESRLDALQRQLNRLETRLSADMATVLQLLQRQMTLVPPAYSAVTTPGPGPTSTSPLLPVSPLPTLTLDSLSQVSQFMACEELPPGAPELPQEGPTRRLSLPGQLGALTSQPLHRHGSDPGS

N=C(N)NCCC[C@H](NC(=O)[C@H](Cc1ccc(O)cc1)NC(=O)[C@H](CCCCN)NC(=O)[C@H](CCCCN)NC(=O)[C@H](CS)NC(=O)CN)C(=O)N[C@@H](CCCNC(=N)N)C(=O)N[C@@H](Cc1ccccc1)C(=O)N[C@@H](CCCNC(=N)N)C(=O)N[C@@H](Cc1c[nH]c2ccccc12)C(=O)N[C@@H](CCCCN)C(=O)N[C@@H](Cc1ccccc1)C(=O)N[C@@H](CCCCN)C(=O)NCC(=O)N[C@@H](CCCCN)C(=O)N[C@@H](Cc1ccccc1)C(=O)N[C@@H](Cc1c[nH]c2ccccc12)C(=O)N[C@@H](Cc1ccccc1)C(=O)N[C@@H](Cc1c[nH]c2ccccc12)C(=O)NCC(N)=O [Pep19-2.5]
lysis of erythrocytes ([1]; at 100 μg/mL, released hemoglobin vs 100% release control): ≤ 20%
concentration above which cytotoxicity increases (hemolysis) [1]: above 20 μg/mL
concentration above which toxic effects are observed (respiration rate) [2]: above 20 μg/mL
concentration above which respiration rate increased significantly [3]: above 50 μg/mL
Rel. Rem. Current ± SD (QPatch) ([4]; 1 µg/mL, fraction): 0.97 ± 0.02
Rel. Rem. Current (QPatch, 20 min Application) ([4]; 10 µg/mL, fraction): 0.92
Rel. Rem. Current ± SD (QPatch) ([4]; 10 µg/mL, fraction): 0.95 ± 0.02
relative remaining hERG current ([4]; 1 µg/mL (Aspidasept n = 4; Pep19-4LF n = 3)): 97.2 ± 2.2%
relative remaining hERG current ([4]; 10 µg/mL (Aspidasept n = 4; Pep19-4LF n = 1)): 95.2 ± 2.5%
relative remaining hERG current ([4]; 10 µg/mL applied for up to 20 min): 92.2%
IC50 ([4]; estimated, no significant effect at highest concentration tested (10 µg/mL), read-out: hypothetical IC50 on hERG-mediated potassium current): > 3.69 µM
skin sensitization potential ([5]; 5%, 2.5%, 1% and 0.5% (w/v) in 1% Pluronic aqueous solution, 25 µL/ear, 3 consecutive days, 3HTdR incorporation): no skin sensitization potential
preliminary irritation/toxicity test ([5]; up to 5% (w/v) in aqueous 1% Pluronic): no adverse effect
maximum attainable test concentration based on solubility [6]: 5 % (w/v)
spontaneous locomotor activity, median score ([7]; 0.02 mg/kg b.w., 1 h, negative control 0.0, not significant): −0.5
positional passivity, median score ([7]; 0.02 mg/kg, 1 h, saline 1.0, p < 0.05): 0.0
hind limb tone, median score ([7]; 0.02 mg/kg, 72 h, negative control 1.0): 2.0
spontaneous locomotor activity, median score ([7]; 0.2 mg/kg b.w., 48 and 72 h, saline −1.0, p < 0.05 at 72 h): 0.5
spontaneous locomotor activity, median score ([7]; 0.2 mg/kg b.w., 1 h, negative control 0.0, not significant): −1.0
head touch, median score ([7]; 0.2 mg/kg, 7 h, saline −1.0, p < 0.01): 0.0
rearing, median score ([7]; 0.2 mg/kg, 48 h, saline −1.0, p < 0.05): 1.0
finger approach, median score ([7]; 0.2 mg/kg, 72 h, saline 0.0, p < 0.05): 2.0
rearing, median score ([7]; 0.2 mg/kg, 72 h, saline −1.0, p < 0.01): 1.0
spontaneous locomotor activity, median score ([7]; 2 mg/kg b.w., 1 h, negative control 0.0, not significant): −1.0
effect in Irwin test ([7]; high dose 2 mg/kg single i.v.): Significant differences were also observed in the high dose group (2 mg/kg), in terms of sensitivity to pinching the tail and vocalization when touched and hind limb reflex
vocalization when touched, median score ([7]; high dose 2 mg/kg, 1 and 24 h, control 0.0, p < 0.05): 1.0
sensitivity to pinching of the tail, median score ([7]; high dose 2 mg/kg, 1 h, negative control 0.0, p < 0.01): −1.5
sensitivity to pinching of the tail, median score ([7]; high dose 2 mg/kg, 7 h, saline 0.0, p < 0.05): −1.5
effect in Irwin test ([7]; low dose 0.02 mg/kg single i.v.): No effect
sensitivity to pinching of the tail, median score ([7]; low dose 0.02 mg/kg, 1 h): 0.0
effect in Irwin test ([7]; mid dose 0.2 mg/kg single i.v.): significant differences to the negative control were noted in rearing, spontaneous locomotor activity and sensitivity to pinching the tail
sensitivity to pinching of the tail, median score ([7]; mid dose 0.2 mg/kg, 1 h): −1.5
neurobehavioral effects overall ([7]; single i.v., 0.02, 0.2 and 2 mg/kg): No relevant neurobehavioral effects
